# In patent US9193731B2, “Antimicrobial compounds and methods of making and using the same” (Melinta Therapeutics, Inc., priority 2009, dated 2015):
# Where a name gives a salt, the structure may show the parent alone.
# System: Escherichia coli strain ATCC25922
# Assay: standard microdilution assay to determine minimum inhibitory concentrations (MICs)
# Type: cell-based
# Conditions: Escherichia coli strain ATCC25922, microdilution
# In short: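 E. coli strain ATCC25922 tested per CLSI microdilution methodology (about 100 microliters per well) to find minimum inhibitory concentrations. Activity scored categorically at a 16 micrograms/ml threshold.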
row,Compound,E. coli ATCC25922 MIC
1,CNCc1ccc(-n2cc3cc(-c4ccc(S(=O)(=O)N(CCCc5cn[nH]c5)C5CCNCC5)cc4)[nH]c3nc2=O)cc1 [Compound 1351],− (a “−” indicates that the compound has an MIC value greater than 16 micrograms/ml)
2,CNCc1ccc(-n2cc3cc(-c4ccc(S(=O)(=O)N(CCCN5CCc6ccccc65)C5CCNCC5)cc4)[nH]c3nc2=O)cc1 [Compound 1063],− (a “−” indicates that the compound has an MIC value greater than 16 micrograms/ml)
3,N=C(N)NCCCNC(=O)c1ccc(-n2cc3cc(-c4ccc(S(=O)(=O)N(CCCC5CCCC5)C5CCNCC5)cc4)[nH]c3nc2=O)cc1 [Compound 1011],+ (a “+” indicates that the compound has an MIC value of 16 micrograms/ml or less)
4,N=C(N)NCCCNCc1ccc(-n2cc3cc(-c4cccc(S(=O)(=O)N(CCC(N)=O)C5CCNCC5)c4)[nH]c3nc2=O)cc1 [Compound 1259],+ (a “+” indicates that the compound has an MIC value of 16 micrograms/ml or less)
5,N=C(N)NCCCNCc1ccc(-n2cc3cc(-c4cccc(OCC(CN)OCC(F)(F)F)c4)[nH]c3nc2=O)cc1 (centres unmarked) [Compound 1455],+ (a “+” indicates that the compound has an MIC value of 16 micrograms/ml or less)
6,N=C(N)NCCCNCc1ccc(-n2cc3cc(-c4ccc(S(=O)(=O)N(CCCn5cnnc5)C5CCNCC5)cc4)[nH]c3nc2=O)cc1 [Compound 856],+ (a “+” indicates that the compound has an MIC value of 16 micrograms/ml or less)
7,N=C(N)NCCCNCc1ccc(-n2cc3cc(-c4ccc(S(=O)(=O)NC5CCN(CCF)CC5)cc4)[nH]c3nc2=O)cc1 [Compound 943],+ (a “+” indicates that the compound has an MIC value of 16 micrograms/ml or less)
8,CC(=O)NCCCS(=O)(=O)c1ccc(-c2cc3cn(-c4ccc(C(=O)NCCCNC(=N)N)cc4)c(=O)nc3[nH]2)cc1 [Compound 1274],− (a “−” indicates that the compound has an MIC value greater than 16 micrograms/ml)

# Same assay, conditions: Escherichia coli, ATCC25922, Escherichia coli strain ATCC25922, microdilution; read-out: E. coli ATCC25922 MIC
row,MIC,Compound
1,< 16 µg/mL,N=C(N)NCCCNCc1ccc(-n2cc3cc(-c4ccc(S(=O)(=O)C5CCNCC5)cc4)[nH]c3nc2=O)cc1 [Compound 1180]
2,< 16 µg/mL,N=C(N)NCCCNCc1ccc(-c2cn3cc(-c4ccc(C5=CCN(C(=N)N)CC5)cc4)[nH]c3nc2=O)cc1 [Compound 650]
3,> 16 µg/mL,C=Cc1cc2cn(-c3ccc(C(=O)NCCCNC(=N)N)cc3)c(=O)nc2[nH]1 [Compound 1112]
4,> 16 µg/mL,N=C(N)NCCCNCc1ccc(-c2cn3cc(-c4ccc(C(=O)N5CCC(O)C5)cc4)[nH]c3nc2=O)cc1 (centres unmarked) [Compound 653]
5,< 16 µg/mL,CN(CCO)C(=O)c1ccc(-c2cn3cc(-c4ccc(CNCCCN)cc4)c(=O)nc3[nH]2)cc1 [Compound 771]
6,> 16 µg/mL,COc1ccc(CCN(C2CCNCC2)S(=O)(=O)c2cccc(-c3cc4cn(-c5ccc(CN)cc5)c(=O)nc4[nH]3)c2)cc1 [Compound 1215]
7,> 16 µg/mL,NCc1ccc(-n2cc3cc(-c4ccc(S(=O)(=O)N(Cc5ccc(Cl)c(Cl)c5)C5CCNCC5)cc4)[nH]c3nc2=O)cc1 [Compound 945]
8,< 16 µg/mL,N=C(N)NCCCNCc1ccc(-n2cc3cc(C4CCCN(C(=N)N)C4)[nH]c3nc2=O)cc1 (centres unmarked) [Compound 1211]
9,> 16 µg/mL,"NCCCNCc1ccc(-c2cn3cc(-c4ccc(Br)cc4)[nH]c3nc2=O)cc1 [Compound 617, 6-{4-[(3-Amino-propylamino)-methyl]-phenyl}-2-(4-bromo-phenyl)-1H-imidazo[1,2-a]pyrimidin-7-one]"
10,< 16 µg/mL,N=C(N)NCCCNCc1ccc(-n2cc3cc(-c4ccsc4)[nH]c3nc2=O)cc1 [Compound 629]
11,> 16 µg/mL,NCCCOc1ccccc1-c1cc2cn(-c3ccc(CN)cc3)c(=O)nc2[nH]1 [Compound 1106]

# Same assay, conditions: Escherichia coli, ATCC25922, read-out: E. coli ATCC25922 MIC
row,Compound,MIC
1,"N=C(N)NCCCNCc1ccc(-c2cn3c(nc2=O)[nH]c2ccccc23)cc1 [Compound 602, N-{3-[4-(2-Oxo-2,10-dihydro-benzo[4,5]imidazo[1,2-a]pyrimidin-3-yl)-benzylamino]-propyl}-guanidine hydrochloride salt]",< 16 µg/mL
